From patent US20230220021A1, “CYCLIC PEPTIDE INHIBITORS OF PSD-95 AND USES THEREOF” (University of Copenhagen, priority 2020, published 2023)
Like-named read-outs stand apart in the source and are kept apart here. Where a SMILES comes first, the peptide text is derived from it. Where no end group is shown, it is not given here. [ ]: non-standard residue; d: D form.

Legend:
PSD-95-PDZ2 [1] = target: T1, PSD-95-PDZ2 (Homo sapiens, UniProt P78352); experiment: Isothermal titration calorimetry (ITC); type: binding; conditions: for fold improved binding affinity compared to the wild-type peptide: ITC Kd
T1 construct: 7xHis (N); made in house; host or cells: Escherichia coli B21 pLys (for the mutants, 'as previously described')
Method: Isothermal titration calorimetry (ITC). The ITC assays were performed in NaPi 50 nM, 50 nM NaCl, pH 7.2 buffer filtered with a Corning® bottle-top vacuum filter system of a pore size of 0.22 μM, that was used to dissolve the peptides. Proteins were dialyzed against this buffer using Amicon® Ultra-15 centrifugal filter units, with a MWCO 3000 Da.
This assay was performed on an ITC200. The instrument differential power (DP) was set to 10 and the syringe rotating speed to 600 RPM. The assay setup consisted of introducing the protein inside the cell and the peptide (titrant) on the syringe. Calorimetry was performed at 25° C. Each analysis was performed in triplicates. Furthermore, several runs of peptide into buffer were performed in order to remove injection residual heat. Runs were analyzed with Origin 7.0 software (OriginLab).

PSD-95-PDZ2 [2] = target: T2, PSD-95-PDZ2 (Homo sapiens, UniProt P78352, V178C); experiment: SPOT peptide array screening with TAMRA labelled PSD-95-PDZ2; type: binding; conditions: for Normalized SPOT fluorescence (Mut/WT): SPOT array, TAMRA labelled PSD-95-PDZ2-V178C, normalized to WT
T2 construct: screened with the TAMRA labelled PSD-95-PDZ2-V178C domain; 7xHis (N); made in house
Summary of the method: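 First, arrays were blocked 1 h and scanned to record background. Next, 50 nM labelled PDZ2-V178C in PBS pH 7.2 with 0.5% BSA bound for 1 h protected from light. Finally, after washes, 532 nm fluorescence was measured and background-corrected.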

PSD-95-PDZ2 [3] = target: T1, PSD-95-PDZ2; experiment: Fluorescence polarization (FP) competition assay against cyclic nNOS TAMRA probe; type: binding; conditions: for Ki: FP competition, cyclic nNOS TAMRA probe, mean of triplicates, N.B. = not binding, read-out: Ki; for Relative Ki (Ki mut/Ki WT): FP inhibition constant normalized to WT value
Method: Fluorescence polarization (FP). FP assays were performed in a 384-well plate format. Fluorescence polarization was measured using a Safire 2 plate reader. The instrument Z-factor was optimized for each assay. The G-factor was calibrated to an initial milli polarization value of 20. The wavelength for the cyclic nNOS β-hairpin TAMRA probe was: ex: 530 nm and em: 580 nm. Every measurement was performed in NaPI 50 mM, 50 mM NaCl and 1% BSA at pH 7.2, 25° C. […] The curves were done in triplicates. Then, the polarization was fitted into a one-site binding model using Prism software 8.0 (GraphPad), from which the Kd can be measured. […] The mili polarization (mP) values were plotted as a function of peptide concentration and fitted to a sigmoidal dose-response curve using Prism software 8.0 (GraphPad). The Ki values were calculated according to Nikolovska-Coleska Z. et al.^40-41

plasmin = plasmin (Homo sapiens, UniProt P00747); experiment: In vitro plasmin stability; type: in vitro ADME; conditions: plasmin (isolated protease, 10 μg/mL) in PBS; 100 μM ligand, PBS with plasmin (10 μg/mL), 37° C., 0 to 360 minutes; mean n=3
plasmin, sequence (P00747 581-810 limits assumed, species assumed): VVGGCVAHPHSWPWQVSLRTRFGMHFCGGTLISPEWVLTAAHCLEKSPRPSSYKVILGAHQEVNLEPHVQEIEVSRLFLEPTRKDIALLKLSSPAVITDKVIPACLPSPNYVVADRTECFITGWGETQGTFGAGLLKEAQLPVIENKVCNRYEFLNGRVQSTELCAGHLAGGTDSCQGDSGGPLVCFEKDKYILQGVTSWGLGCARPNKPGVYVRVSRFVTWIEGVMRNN
plasmin, sequence (P00747 97-580 partner limits assumed, species assumed): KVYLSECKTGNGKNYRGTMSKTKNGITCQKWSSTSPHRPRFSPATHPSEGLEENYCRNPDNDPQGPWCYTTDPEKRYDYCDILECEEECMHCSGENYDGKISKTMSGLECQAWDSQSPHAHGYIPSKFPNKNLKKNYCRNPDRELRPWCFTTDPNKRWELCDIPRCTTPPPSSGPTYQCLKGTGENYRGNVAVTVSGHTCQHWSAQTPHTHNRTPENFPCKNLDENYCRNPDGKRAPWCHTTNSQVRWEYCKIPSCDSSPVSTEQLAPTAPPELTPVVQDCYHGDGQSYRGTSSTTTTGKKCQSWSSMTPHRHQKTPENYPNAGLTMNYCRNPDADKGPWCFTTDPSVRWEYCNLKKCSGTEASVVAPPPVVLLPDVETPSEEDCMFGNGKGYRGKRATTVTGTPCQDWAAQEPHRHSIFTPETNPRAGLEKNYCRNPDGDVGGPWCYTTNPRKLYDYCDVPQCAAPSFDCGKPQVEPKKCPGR
Method: The in vitro plasmin stability of peptides with SEQ ID NOs: 12, 68, 99 and 163 were determined by incubating 100 μM of ligand in phosphate buffered saline (PBS) supplemented with plasmin (10 μg/mL) at 37° C. for 0 to 360 minutes. At selected time points during the incubation, the ligands were extracted from 80 μL of assay matrix by treatment with 80 μL of 50% acetonitrile (ACN). The samples were filtered and analysed by UPLC to determine the amount of ligand remaining. LC-MS analysis was performed to confirm ligand integrity and identify cleavage sites.

Compound: CC[C@H](C)[C@@H]1NC(=O)[C@H]([C@@H](C)O)NC(=O)[C@H](CCCCN)NC(=O)[C@@H]2CCCN2C(=O)[C@H](CCC(=O)O)NC(=O)CNC(=O)[C@H](CC(=O)O)NC(=O)CNC(=O)[C@H](Cc2c[nH]c3ccccc23)NC(=O)[C@H](Cc2ccccc2)NC(=O)[C@H]([C@@H](C)O)NC(=O)[C@H]([C@@H](C)O)NC(=O)[C@H](CCC(=O)O)NC(=O)[C@H](CC(C)C)NC(=O)[C@H](Cc2c[nH]cn2)NC(=O)[C@H]([C@@H](C)O)NC(=O)[C@H](CCC(N)=O)NC(=O)CNC(=O)[C@H]2CCCN2C(=O)[C@H](CCC(N)=O)NC(=O)[C@H]([C@@H](C)O)NC(=O)[C@H](C(C)C)NC(=O)[C@H](CCCNC(=N)N)NC1=O [compound 14] (cyclo(THLETTFWGDGEPKTIRVTQ[dP]GQ))
- ΔH (PSD-95-PDZ2 [1]; ITC, 25° C.): -7.208 ± 0.8381 kcal/mol
- −ΔS*T (PSD-95-PDZ2 [1]; ITC, 25° C.): -2.1487 ± 0.759 kcal/mol
- Kd (PSD-95-PDZ2 [1]; ITC, 25° C., read-out: Kd): 139 ± 18.2 nM
- Average (fluorescence raw data) (PSD-95-PDZ2 [2]; non-proteogenic AA scan, Hit1(T112W T116E) peptide scaffold, SPOT array incubated with TAMRA-labelled PSD-95-PDZ2, average of Pep. 1-3): 10.70 10^6
- Fluor. Pep. 1 (fluorescence raw data) (PSD-95-PDZ2 [2]; non-proteogenic AA scan, Hit1(T112W T116E) peptide scaffold, SPOT array incubated with TAMRA-labelled PSD-95-PDZ2, replicate peptide 1): 9.88 10^6
- Fluor. Pep. 2 (fluorescence raw data) (PSD-95-PDZ2 [2]; non-proteogenic AA scan, Hit1(T112W T116E) peptide scaffold, SPOT array incubated with TAMRA-labelled PSD-95-PDZ2, replicate peptide 2): 12.86 10^6
- Fluor. Pep. 3 (fluorescence raw data) (PSD-95-PDZ2 [2]; non-proteogenic AA scan, Hit1(T112W T116E) peptide scaffold, SPOT array incubated with TAMRA-labelled PSD-95-PDZ2, replicate peptide 3): 9.36 10^6
- Ki (PSD-95-PDZ2 [3]): 110 nM

Compound: CC[C@H](C)[C@@H]1NC(=O)[C@H]([C@@H](C)O)NC(=O)[C@H](CCCCN)NC(=O)[C@@H]2CCCN2C(=O)[C@H]([C@@H](C)O)NC(=O)CNC(=O)[C@H](CC(=O)O)NC(=O)CNC(=O)[C@H](Cc2c[nH]c3ccccc23)NC(=O)[C@H](Cc2ccccc2)NC(=O)[C@H]([C@@H](C)O)NC(=O)[C@H]([C@@H](C)O)NC(=O)[C@H](CCC(=O)O)NC(=O)[C@H](CC(C)C)NC(=O)[C@H](Cc2c[nH]cn2)NC(=O)[C@H]([C@@H](C)O)NC(=O)[C@H](CCC(N)=O)NC(=O)CNC(=O)[C@H]2CCCN2C(=O)[C@H](CCC(N)=O)NC(=O)[C@H]([C@@H](C)O)NC(=O)[C@H](C(C)C)NC(=O)[C@H](CCCNC(=N)N)NC1=O [compound 163] (cyclo(THLETTFWGDGTPKTIRVTQ[dP]GQ))
- half-life at 100 μM (plasmin): 1.4 h

Compound: THLETTFTGDGTPKTIRVTQpGQE (THLETTFTGDGTPKTIRVTQ[dP]GQE) [SEQ ID NO: 137]
- affinity (Kd) by ITC (PSD-95-PDZ2 [1]; 25° C., tested up to 100 μM): did not show binding

Compound: CC[C@H](C)[C@@H]1NC(=O)[C@H]([C@@H](C)O)NC(=O)[C@H](CCCCN)NC(=O)[C@@H]2CCCN2C(=O)[C@H](CCC(=O)O)NC(=O)CNC(=O)[C@H](CC(=O)O)NC(=O)CNC(=O)[C@H](Cc2c[nH]c3ccccc23)NC(=O)[C@H](Cc2ccccc2)NC(=O)[C@H]([C@@H](C)O)NC(=O)[C@H]([C@@H](C)O)NC(=O)[C@H](CCC(=O)O)NC(=O)[C@H](CC(C)C)NC(=O)[C@H](Cc2cncn2C)NC(=O)[C@H]([C@@H](C)O)NC(=O)[C@H](CCC(N)=O)NC(=O)CNC(=O)[C@H]2CCCN2C(=O)[C@H](CCC(N)=O)NC(=O)[C@H]([C@@H](C)O)NC(=O)[C@H](C(C)C)NC(=O)[C@H](CCCNC(=N)N)NC1=O [compound 16]
- ΔH (PSD-95-PDZ2 [1]; ITC, 25° C.): -6.6378 ± 0.1229 kcal/mol
- −ΔS*T (PSD-95-PDZ2 [1]; ITC, 25° C.): -3.6598 ± 0.239 kcal/mol

Compound: CC[C@H](C)[C@@H]1NC(=O)[C@H]([C@@H](C)O)NC(=O)[C@H](CCCCN)NC(=O)[C@@H]2CCCN2C(=O)[C@H]([C@@H](C)O)NC(=O)CNC(=O)[C@H](CC(=O)O)NC(=O)CNC(=O)[C@H]([C@@H](C)O)NC(=O)[C@H](Cc2ccccc2)NC(=O)[C@H]([C@@H](C)O)NC(=O)[C@H]([C@@H](C)O)NC(=O)[C@H](CCC(=O)O)NC(=O)[C@H](CC(C)C)NC(=O)[C@H](Cc2c[nH]cn2)NC(=O)[C@H]([C@@H](C)O)NC(=O)[C@H](CCC(N)=O)NC(=O)CNC(=O)[C@H]2CCCN2C(=O)[C@H](CCC(N)=O)NC(=O)[C@H]([C@@H](C)O)NC(=O)[C@H](C(C)C)NC(=O)[C@H](CCCNC(=N)N)NC1=O [SEQ ID NO: 12]
- Kd (PSD-95-PDZ2 [1]; 25° C., tested up to 100 μM, read-out: affinity (Kd) by ITC): 2200 ± 300 nM

Compound: CC[C@H](C)[C@@H]1NC(=O)[C@H]([C@@H](C)O)NC(=O)[C@H](CCCCN)NC(=O)[C@@H]2CCCN2C(=O)[C@H](CCC(=O)O)NC(=O)CNC(=O)[C@H](CC(=O)O)NC(=O)CNC(=O)[C@H](Cc2c[nH]c3ccccc23)NC(=O)[C@H](Cc2ccccc2)NC(=O)[C@H]([C@@H](C)O)NC(=O)[C@H]([C@@H](C)O)NC(=O)[C@H](CCC(=O)O)NC(=O)[C@H](CC(C)C)NC(=O)[C@H](Cc2cncn2C)NC(=O)[C@H]([C@@H](C)O)NC(=O)[C@H](CCC(N)=O)NC(=O)CNC(=O)[C@H]2CCCN2C(=O)[C@H](CCC(N)=O)NC(=O)[C@H]([C@@H](C)O)NC(=O)[C@H](C(C)C)NC(=O)[C@H](CCCNC(=N)N)NC1=O [SEQ ID NO: 16]
- fold improved binding affinity compared to the wild-type peptide (PSD-95-PDZ2 [1]): 75 fold

Compound: CC[C@H](C)[C@@H]1NC(=O)[C@H]([C@@H](C)O)NC(=O)[C@H](CCCCN)NC(=O)[C@@H]2CCCN2C(=O)[C@H](CCC(=O)O)NC(=O)CNC(=O)[C@H](CC(=O)O)NC(=O)CNC(=O)[C@H](Cc2c[nH]c3ccccc23)NC(=O)[C@H](Cc2ccccc2)NC(=O)[C@H]([C@@H](C)O)NC(=O)[C@H]([C@@H](C)O)NC(=O)[C@H](CCC(=O)O)NC(=O)[C@H](CC(C)C)NC(=O)[C@H](Cc2c[nH]cn2)NC(=O)[C@H]([C@@H](C)O)NC(=O)[C@H](CCC(N)=O)NC(=O)CNC(=O)[C@H]2CCCN2C(=O)[C@H](CCC(N)=O)NC(=O)[C@H]([C@@H](C)O)NC(=O)[C@H](C(C)C)NC(=O)[C@H](CCCNC(=N)N)NC1=O [SEQ ID NO: 14] (cyclo(THLETTFWGDGEPKTIRVTQ[dP]GQ))
- fold improved binding affinity compared to the wild-type peptide (PSD-95-PDZ2 [1]): 16 fold

Compound: CC[C@H](C)[C@@H]1NC(=O)[C@H]([C@@H](C)O)NC(=O)[C@H](CCCCN)NC(=O)[C@@H]2CCCN2C(=O)[C@H]([C@@H](C)O)NC(=O)CNC(=O)[C@H](CC(=O)O)NC(=O)[C@H](C)NC(=O)[C@H]([C@@H](C)O)NC(=O)[C@H](Cc2ccccc2)NC(=O)[C@H]([C@@H](C)O)NC(=O)[C@H]([C@@H](C)O)NC(=O)[C@H](CCC(=O)O)NC(=O)[C@H](CC(C)C)NC(=O)[C@H](Cc2c[nH]cn2)NC(=O)[C@H]([C@@H](C)O)NC(=O)[C@H](CCC(N)=O)NC(=O)CNC(=O)[C@H]2CCCN2C(=O)[C@H](CCC(N)=O)NC(=O)[C@H]([C@@H](C)O)NC(=O)[C@H](C(C)C)NC(=O)[C@H](CCCNC(=N)N)NC1=O [compound 63] (cyclo(THLETTFTADGTPKTIRVTQ[dP]GQ))
- Normalized SPOT fluorescence (Mut/WT) (PSD-95-PDZ2 [2]): 0.68
- Relative Ki (Ki mut/Ki WT) (PSD-95-PDZ2 [3]): 3.03

Compound: CC[C@H](C)[C@@H]1NC(=O)[C@H]([C@@H](C)O)NC(=O)[C@H](CCCCN)NC(=O)[C@@H]2CCCN2C(=O)[C@H](CCC(=O)O)NC(=O)CNC(=O)[C@H](CC(=O)O)NC(=O)CNC(=O)[C@H]([C@@H](C)O)NC(=O)[C@H](Cc2ccccc2)NC(=O)[C@H]([C@@H](C)O)NC(=O)[C@H]([C@@H](C)O)NC(=O)[C@H](CCC(=O)O)NC(=O)[C@H](CC(C)C)NC(=O)[C@H](Cc2c[nH]cn2)NC(=O)[C@H]([C@@H](C)O)NC(=O)[C@H](CCC(N)=O)NC(=O)CNC(=O)[C@H]2CCCN2C(=O)[C@H](CCC(N)=O)NC(=O)[C@H]([C@@H](C)O)NC(=O)[C@H](C(C)C)NC(=O)[C@H](CCCNC(=N)N)NC1=O [compound 33] (cyclo(THLETTFTGDGEPKTIRVTQ[dP]GQ))
- Normalized SPOT fluorescence (Mut/WT) (PSD-95-PDZ2 [2]): 1.37
- Ki (PSD-95-PDZ2 [3]): 420 nM
- Relative Ki (Ki mut/Ki WT) (PSD-95-PDZ2 [3]): 0.28
